Experimental data from US9518038B2, “Condensation product of theanine derivative and carboxylic acid coumarin derivative, its intermediate, preparation method and use thereof” (SHANDONG YINGDONG YINGHAO BIOTECHNOLOGY, INC., priority 2012, dated 2016).
Marks after values point to notes of the source that are not given here.

Key:
[1] = test system: human colon cancer cells HT29; assay: MTT growth inhibition, HT29 cells; format: cell-based; conditions: HT-29, 72 h after treatment, read-out: Drug concentration (IC50) at which 50% cancer cells survived
Excerpt: (§1) Cell lines and cell culture: human lung cancer cells A549 and H460, human breast cancer cells MCF-7 and MDA-MB-231, human gastric cancer cells BGC-823, human prostate cancer cells PC-3, human chronic leukemia cells K562, human lymphoma cells U937, human liver cancer cells SMMC7721 and HepG2, human colon cancer cells HT29, human pancreatic cancer cells PANC-1 and BxPC3, human cervical cancer Hela cell lines, human brain tumor cells Daoy, human neuroma cells D54 and human oral epidermoid cancer cells KBV200 line with strong drug resistance, mouse melanoma cells B16, and highly metastatic Lewis lung cancer cell lines were purchased from American Type Culture Collection of the U.S. These cells were cultured with DMEM and RPMI-1640 culture solutions separately.
(§2) The procedure was as follows:
(§3) (1) 0.25% trypsin was used to digest cancer cells in a logarithmic growth phase to prepare a single-cell suspension, the concentration of cells was adjusted to 5×10^4/mL, and the adjusted suspension was inoculated into a 96-well culture plate with 100 μl per well;
(§4) (2) The culture plate was transferred into a 37° C. incubator with a saturated humidity and 5% of CO2 and cultured for 24 h; the compounds and the intermediates thereof obtained in embodiments 1-7 and the compound as represented by formula (IIIa) or the positive control anti-cancer drug with the concentration of 1-1000 μM/L were added to enable the final concentration to be 0.1-1500 μM/L. Control wells (only added with 200 μl of cell suspension) and drug-free blank control wells (containing the solvent of 0.01% DMSO) were set, each group included 8 wells, and the plate was placed into the 37° C. incubator with saturated humidity and 5% of CO2 for culturing;
(§5) (3) The 96-well plate was taken out at 48 h and 72 h after dosing, the original culture medium was carefully removed by suction, 100 μl of serum-free DMEM culture medium and 10 μl of MTT (5 mg/mL) solution were added in each well. The plate was continuously cultured for another 4 h and then the culture was terminated;
(§6) (4) The supernatant in the wells was carefully removed by suction, each well was added with 150 μl of DMSO and shaked at room temperature for 10-15 min to fully dissolve crystals.
(§7) (5) Colorimetric analysis: the wavelength was selected as 570 nm, the light absorbance (A value) of each well was determined on the microplate reader and the results were recorded; the experiment was repeated for three times;
(§8) (6) the experimental results were calculated according to the following formula: relative survival rate=(A value of each experimental group/A value of cell control group)×100%
(§9) Calculation of median-effect concentration (IC50, namely the drug concentration at which the inhibition rate is 50%, also known as half inhibitory concentration):
(§10) IC50 of the detected component was calculated by using a regression equation.

[2] = test system: human pancreatic cancer cells BxPC3; assay: MTT growth inhibition, BxPc3 cells; format: cell-based; conditions: Homo sapiens, BXPC-3, 72 h after treatment, read-out: Drug concentration (IC50) at which 50% cancer cells survived
Excerpt: as §1, §2, §3, §4, §5, §6, §7, §8, §9, §10

[3] = test system: VEGFR1; assay: Western Blotting, VEGFR1 level; format: cell-based; conditions: human liver cancer cells, Lewis lung cancer cells and other cancer cell lines and tumor tissues, read-out: Effective concentration (IC50) for inhibition of VEGFR1
Excerpt: (§11) Antibodies: primary antibodies of VEGFR, EGFR, c-Met, K-Ras, H-Ras, Akt, NF-κB, Cyclin D1, ER-alpha, Dvl-1, Dvl-2, Dvl-3, MMP-9, MMP2, β-catenin, Bcl-2, Bax, p53, p21, E-cadherin and Caspase3 protein, purchased from American Cell Signaling Technology Company and Santa Cruz Technology Company; and H3 acetylation, H4 acetylation and HDAC (HDAC3, HDAC4 and the like) Antibody Sample Kits, purchased from Cell Signaling Technology Company of the U.S.
(§12) (3) polyacrylamide gel electrophoresis (SDS-PAGE): an equal amount of protein lysate sample was used to separate protein, film transfer, and blocking, treated with appropriate primary antibodies and secondary antibodies in sequence, and the film was washed, then the color was developed with ECL kit, and a blot protein band was detected by exposure of an X-ray film; and a Gel-Pro Analyzer was used for quantitative analysis of gray degree, optical density value of the control group and the drug treatment group in various concentration were respectively compared with that of internal reference, the obtained ratios were respectively compared with the control group, and the protein expression level was semi-quantified.

[4] = test system: human lung cancer cells A549; assay: MTT growth inhibition, A549 cells; format: cell-based; conditions: 72 h after treatment, read-out: Drug concentration (IC50) at which 50% cancer cells survived
Excerpt: as §1, §2, §3, §4, §5, §6, §7, §8, §9, §10

[5] = test system: MMP-2; assay: Western Blotting, MMP2 level; format: cell-based; conditions: human liver cancer cells, Lewis lung cancer cells and other cancer cell lines and tumor tissues, read-out: Effective concentration (IC50) for inhibition of MMP2
Excerpt: as §11, §12

[6] = test system: Dvl-2; assay: Western Blotting, Dvl-2 level; format: cell-based; conditions: human liver cancer cells, Lewis lung cancer cells and other cancer cell lines and tumor tissues, read-out: Effective concentration (IC50) for inhibition of Dvl-2
Excerpt: as §11, §12

[7] = test system: MMP-9; assay: Western Blotting, MMP9 level; format: cell-based; conditions: human liver cancer cells, Lewis lung cancer cells and other cancer cell lines and tumor tissues, read-out: Effective concentration (IC50) for inhibition of MMP9
Excerpt: as §11, §12

[8] = test system: ER-alpha; assay: Western Blotting, ER-alpha level; format: cell-based; conditions: human liver cancer cells, Lewis lung cancer cells and other cancer cell lines and tumor tissues, read-out: Effective concentration (IC50) for inhibition of ER-alpha
Excerpt: as §11, §12

[9] = test system: Dvl-3; assay: Western Blotting, Dvl-3 level; format: cell-based; conditions: human liver cancer cells, Lewis lung cancer cells and other cancer cell lines and tumor tissues, read-out: Effective concentration (IC50) for inhibition of DVl-3
Excerpt: as §11, §12

[10] = test system: HDAC4; assay: HDAC4 enzyme activity in nuclear extracts of LLC tumors of treated mice; conditions: LLC tumor grown in vivo; second value of the pair HDAC3 and HDAC4; SAHA 25 mg/kg
Protocol: (§13) For the detection of the effect of the drugs on enzyme activity of EZH2 and HDAC of in-vivo tumors, the tumors were separately excised after 6 h of medication, total proteins and nucleoproteins were extracted separately to detect and analyze the activity of the enzyme.
(§14) (2) 50 μl of diluted sample solution was added into each reaction well, the plate was sealed with a plate-sealing film and reacted at room temperature for 30 min;
(§15) (3) the plate-sealing film was carefully peeled off, the liquid was removed, dried, 150 μl of washing liquid was added into each well, stood for 30 s, then the liquid was removed, repeated twice, and dried;
(§16) (4) 2 μl of HDAC enzyme or tumor tissue nuclear extracts was respectively uniformly mixed with 28 μl of diluted sample solution, added into the wells, the plate was sealed with the plate-sealing film and reacted at 37° C. for 60 min;
(§17) (5) the plate was washed for three times, wherein the operation was the same as that in (3); and a diluted antibody capture working solution was added into each reaction well according to 50 μl/well and reacted on a shaking bed at room temperature for 60 min; […]
(§18) (10) the light absorbance (OD value) of each well was measured in sequence at the wavelength of 450 nm; wherein the measurement should be performed within 15 min after addition of the stop solution; and

[11] = molecular target: T1, EZH2 (Mus musculus, UniProt Q61188); assay: EZH2 enzyme activity in protein extracts of LLC tumors of treated mice (EZH2 Assay Kit); conditions: LLC tumor grown in vivo; tumors excised 6 h after medication; SAHA 25 mg/kg
T1 construct: the EZH2 enzyme was replaced with tumor protein extracts in each group; from tissue; host or cells: Lewis lung cancer tumours from treated mice
T1 sequence (Q61188 whole entry): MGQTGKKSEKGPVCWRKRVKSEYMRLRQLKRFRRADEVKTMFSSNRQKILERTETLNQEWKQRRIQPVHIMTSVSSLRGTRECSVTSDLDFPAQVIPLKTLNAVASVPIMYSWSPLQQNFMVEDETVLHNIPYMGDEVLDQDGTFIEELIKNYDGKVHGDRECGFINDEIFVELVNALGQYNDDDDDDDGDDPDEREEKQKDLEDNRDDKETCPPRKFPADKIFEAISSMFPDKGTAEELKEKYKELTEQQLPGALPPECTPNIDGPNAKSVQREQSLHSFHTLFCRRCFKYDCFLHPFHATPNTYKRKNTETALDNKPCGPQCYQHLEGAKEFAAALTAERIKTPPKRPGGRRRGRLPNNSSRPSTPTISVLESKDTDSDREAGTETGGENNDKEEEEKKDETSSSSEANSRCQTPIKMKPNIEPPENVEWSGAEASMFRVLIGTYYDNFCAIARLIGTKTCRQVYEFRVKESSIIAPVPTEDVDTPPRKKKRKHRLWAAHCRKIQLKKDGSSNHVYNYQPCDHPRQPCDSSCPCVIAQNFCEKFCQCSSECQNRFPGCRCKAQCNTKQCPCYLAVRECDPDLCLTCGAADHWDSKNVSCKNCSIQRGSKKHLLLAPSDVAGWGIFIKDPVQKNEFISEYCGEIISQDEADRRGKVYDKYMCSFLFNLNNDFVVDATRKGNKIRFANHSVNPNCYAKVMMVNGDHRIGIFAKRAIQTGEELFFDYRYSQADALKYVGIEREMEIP
T1 sequence (Q921E6 whole entry partner): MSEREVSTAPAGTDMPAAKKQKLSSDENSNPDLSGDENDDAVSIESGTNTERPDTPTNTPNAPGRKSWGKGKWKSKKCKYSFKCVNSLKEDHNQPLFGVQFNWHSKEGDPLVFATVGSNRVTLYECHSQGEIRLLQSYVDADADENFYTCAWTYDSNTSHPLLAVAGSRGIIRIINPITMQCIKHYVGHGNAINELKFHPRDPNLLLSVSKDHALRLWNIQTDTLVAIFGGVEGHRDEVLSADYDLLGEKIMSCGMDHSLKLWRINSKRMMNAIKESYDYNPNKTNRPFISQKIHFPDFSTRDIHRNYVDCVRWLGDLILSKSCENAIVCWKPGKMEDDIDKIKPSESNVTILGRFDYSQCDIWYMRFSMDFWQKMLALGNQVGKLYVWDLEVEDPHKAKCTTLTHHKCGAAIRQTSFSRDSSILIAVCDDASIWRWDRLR
T1 sequence (Q80U70 whole entry partner): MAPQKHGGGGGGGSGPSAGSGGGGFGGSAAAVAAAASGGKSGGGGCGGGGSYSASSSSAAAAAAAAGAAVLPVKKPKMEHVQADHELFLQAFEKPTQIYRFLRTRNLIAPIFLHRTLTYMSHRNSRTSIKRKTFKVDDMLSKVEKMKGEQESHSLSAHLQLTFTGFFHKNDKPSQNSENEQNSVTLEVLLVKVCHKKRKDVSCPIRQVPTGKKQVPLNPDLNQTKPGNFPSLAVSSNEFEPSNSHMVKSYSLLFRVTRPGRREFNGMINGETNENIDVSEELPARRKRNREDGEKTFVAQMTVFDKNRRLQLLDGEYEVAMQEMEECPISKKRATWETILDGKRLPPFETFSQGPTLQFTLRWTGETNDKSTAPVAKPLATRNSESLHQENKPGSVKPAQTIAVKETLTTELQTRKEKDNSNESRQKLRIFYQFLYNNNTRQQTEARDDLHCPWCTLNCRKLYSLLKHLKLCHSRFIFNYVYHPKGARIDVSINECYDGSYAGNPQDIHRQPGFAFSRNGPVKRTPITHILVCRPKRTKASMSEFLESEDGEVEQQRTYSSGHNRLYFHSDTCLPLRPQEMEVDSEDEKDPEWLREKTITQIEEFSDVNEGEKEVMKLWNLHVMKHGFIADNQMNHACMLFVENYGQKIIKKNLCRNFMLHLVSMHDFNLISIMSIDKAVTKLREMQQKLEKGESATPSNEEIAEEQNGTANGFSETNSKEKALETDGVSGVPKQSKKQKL

[12] = test system: HDAC3; assay: HDAC3 enzyme activity in nuclear extracts of LLC tumors of treated mice; conditions: LLC tumor grown in vivo; first value of the pair HDAC3 and HDAC4; SAHA 25 mg/kg
Protocol: as §13, §14, §15, §16, §17, §18

Structure (SMILES)	IC50 [1]	IC50 [2]	IC50 [3]	IC50 [4]	IC50 [5]	IC50 [6]	IC50 [7]	IC50 [8]	IC50 [9]	decrease of HDAC4 enzyme activity/inhibition rate [10]	decrease of EZH2 enzyme activity/inhibition rate [11]	decrease of HDAC3 enzyme activity/inhibition rate [12]
CCNC(=O)CC[C@@H](NC(=O)c1cc2cc(Br)ccc2oc1=O)C(=O)OCC [Compound Id, (R)-2-(6-Br-2-oxo-2H-benzopyran-3-carboxamido)-5-ethylamino-5-oxo-pentanoic acid ethyl ester]	45 µM	116 µM	< 100 µM	139 ± 50 µM	–	–	–	–	–	–	–	–
CCNC(=O)CC[C@H](N)C(=O)OC [Compound IIa, theanine methyl ester]	250 µM	600 µM	–	650 ± 30 µM	–	–	–	–	–	–	–	–
CCNC(=O)CC[C@@H](NC(=O)c1cc2cc(Cl)ccc2oc1=O)C(=O)OCC [Compound Ic, (R)-2-(6-CI-2-oxo-2H-benzopyran-3-carboxamido)-5-ethylamino-5-oxo-pentanoic acid ethyl ester]	105 µM	89 µM	< 100 µM	128 ± 60 µM	–	–	–	–	–	–	–	–
CCNC(=O)CC[C@@H](NC(=O)c1cc2cc(Cl)cc(Cl)c2oc1=O)C(=O)OCC [Compound Ig, (R)-2-(6,8-dichloro-2-oxo-2H-benzopyran-3-carboxamido)-5-ethylamino-5-oxo-pentanoic ethyl ester]	99 µM	119 µM	< 100 µM	45 µM	< 50 µM	< 100 µM	< 65 µM	< 100 µM	< 100 µM	–	–	–
CCNC(=O)CCC(NC(=O)c1cc2cc([N+](=O)[O-])ccc2oc1=O)C(=O)OCC (stereo in doubt) [Compound If, (R)-2-(6-nitro-2-oxo-2H-benzopyran-3-carboxamido)-5-ethylamino-5-oxo-pentanoic acid ethyl ester]	153 µM	180 µM	< 90 µM	122 µM	–	–	–	–	–	–	–	–
CCNC(=O)CCC(NC(=O)c1cc2ccccc2oc1=O)C(=O)OCC (stereo not drawn) [Compound Ib, ethyl 5-ethylamino-5-oxo-2-(2-oxo-2H-benzopyran-3-carboxamido)pentanoate]	105 µM	105 µM	< 120 µM	125 ± 50 µM	–	–	–	–	–	–	–	–
CCNC(=O)CCC(NC(=O)c1cc2cc(F)ccc2oc1=O)C(=O)OCC (stereo in doubt) [Compound Ie, (R)-2-(6-F-2-oxo-2H-benzopyran-3-carboxamido)-5-ethylamino-5-oxo-pentanoic acid ethyl ester]	240 µM	260 µM	< 110 µM	141 µM	–	–	–	–	–	–	–	–
CCNC(=O)CC[C@H](N)C(=O)OCC [Compound IIb, theanine ethyl ester]	600 µM	300 µM	–	500 ± 30 µM	–	–	–	–	–	–	–	–
CCNC(=O)CC[C@@H](NC(=O)c1cc2cc(Br)cc(Br)c2oc1=O)C(=O)OCC [Compound Ih, (R)-2-(6,8-dibromo-2-oxo-2H-benzopyran-3-carboxamido)-5-ethylamino-5-oxo-pentanoic ethyl ester]	108 µM	128 µM	< 100 µM	56 µM	< 50 µM	< 100 µM	< 65 µM	< 100 µM	< 100 µM	–	–	–
CCNC(=O)CCC(NC(=O)c1cc2ccccc2oc1=O)C(=O)OC (stereo not drawn) [Compound Ia, methyl 5-ethylamino-5-oxo-2-(2-oxo-2H-benzopyran-3-carboxamido)pentanoate]	62 µM	350 µM	< 125 µM	300 ± 60 µM	–	–	–	–	–	52%*(LLC)-	52%(LLC)-	55%* and
